The values that follow come from patent US20250268895A1, “Crystalline Forms of a BTK Inhibitor” (NOVARTIS AG, priority 2019, published 2025).

Holding throughout (format): physicochemical
Series [1] is described as follows: Granulation simulation experiments. Conditions: water, ethanol, 2-propanol, Acetone, benzylalcohol; dried under vacuum. On the procedure:
Granulating solvents were added drop wise to polymorphic Form A until solid is wetted sufficiently. The suspension was stirred by Vortex between each addition. The suspension was dried under vacuum. The remaining solid form was isolated and degree of crystallinity was analyzed by XRPD and/or DSC. The tested Granulating solvents were water, ethanol, 2-propanol, Acetone, benzylalcohol.

Series [2] can be described thus: Solvent equilibration of Modification A (stability in solvent, HT-XRPD). Here is the method: Suspensions of Modification A were prepared in 23 selected solvents and let to equilibrate at room temperature (RT) for 4 weeks and at 50° C. for 2 weeks. Upon completion of the equilibration time, the solids were separated from the liquid phases, dried at ambient conditions and under vacuum (5 mbar/50° C.), and analyzed by HT-XRPD.
When the suspensions dissolved, the solvent was removed by evaporation under vacuum (initially at 200 mbar/RT, then at 5 mbar/50° C.). The liquid phases were also evaporated under the same conditions. Residual solids were analyzed by HT-XRPD.

The nature of series [3]: Stability under compression. Conditions: 5 minutes at 10 tons, hydraulic press. Here is the method:
100-300 mg of polymorphic Form A was compressed for 5 minutes at 10 tons with a hydraulic press (diameter of the tablets 13 mm). The sample was then analyzed by XRPD and DSC to check for any occurring polymorphic change.

The nature of series [4]: Physico-chemical stability under stress conditions (HR-XRPD, TGMS, HPLC assay). The settings on record: for XRPD pattern after stress conditions: all three test conditions (80° C. 1 month; 80° C./75% RH 1 month; 100° C. 3 days). Here is the method:
Modifications A, B and C were subjected to the following stress conditions: • 80° C. in closed vials for 1 month; • 80° C./75% RH in open vials for 1 month; • 100° C. in closed vials for 3 days;
Afterwards, the solids were analyzed by HR-XRPD, TGMS and HPLC assay to evaluate potential solid phase change, loss on drying and chemical purity.
Upon completion of the stability test, all solids were analyzed by HR-XRPD, TGMS and HPLC assay.
Auto sampler temp.: 15° C.
Column: Waters Sunfire C18 (100×4.6 mm; 3.5 μm).
Gradient: Mobile phase A: 0.1% TFA in Water
Mobile phase B: 0.1% TFA in Acetonitrile

The nature of series [5]: Moisture uptake at 80% and 92% RH (HT-XRPD, TGMS). Conditions: 25° C., 24 hours. On the procedure:
The moisture sorption of Modification A was evaluated by exposing the solid material to 80% and 92% RH at 25° C. for 24 hours. Afterwards, the solids were analyzed by HT-XRPD to evaluate any change in crystalline phase, and by TGMS to determine the water uptake. […] Therefore, Modification A could be considered non-hygroscopic.

Series [6] in a line: Dynamic vapor sorption (DVS). The settings on record: for DVS highest change in mass: 95% RH.
A short description of series [7]: Conversion at room temperature monitored by HR-XRPD. The settings on record: left at room temperature. An excerpt: Modification C (Example 2) was left at room temperature and the conversion into Modification B was monitored by HR-XRPD and it was complete after 5 days.
Series [8] can be described thus: Solvent equilibration of Modifications B and C (stability in solvent, HT-XRPD). Here is the method:
Suspensions of Modifications B and C were prepared in 15 selected solvents and let to equilibrate at RT for 2 weeks and at 50° C. for 1 week. Upon completion of the equilibration time, the solids were separated from the liquid phases, dried at ambient conditions and under vacuum (5 mbar/50° C.), and analyzed by HT-XRPD.
When the suspensions dissolved, the solvent was removed by evaporation under vacuum (initially 200 mbar/RT, then 5 mbar/50° C.). The liquid phases were also evaporated under the same conditions. Residual solids were analyzed by HT-XRPD.

Setting [9] is: 80° C./75% RH, 1 month, open vial.
The mark [10] stands for this setting: Dichloromethane, 50° C., 1 week.

Regarding `C=CC(=O)N(C)CCOc1c(N)ncnc1-c1cc(F)cc(NC(=O)c2ccc(C3CC3)cc2F)c1C` [Modification A, N-(3-(6-Amino-5-(2-(N-methylacrylamido)ethoxy)pyrimidin-4-yl)-5-fluoro-2-methylphenyl)-4-cyclopropyl-2-fluorobenzamide], in series [1], the “Crystallinity (XRPD and/or DSC) after granulation simulation” value was “No change of crystallinity”. For the same compound, the “HT-XRPD Evap. ML” value is on record as “A (l.y.)” in series [2] (Acetone, 50° C., 2 weeks); “A (l.y.)” in series [2] (Acetonitrile, 50° C., 2 weeks); “A (l.y.)” in series [2] (Anisole, 50° C., 2 weeks); “A + B” in series [2] (Chloroform, 50° C., 2 weeks); “A (l.y.)” in series [2] (Isopropyl acetate, 50° C., 2 weeks); “A (l.y.)” in series [2] (MeOH, RT, 4 weeks). For the same compound, the “HT-XRPD Evap. ML” value in series [2] (MeOH/Acetone 50/50, RT, 4 weeks) is recorded as “A (l.y.)”; in series [2] (MeOH/DCM 50/50, RT, 4 weeks) it was “B (l.y.)”; in series [2] (Nitromethane, 50° C., 2 weeks) it was “A (l.y.)”; in series [2] (Water, 50° C., 2 weeks), “A (l.y.)”. For the same compound, the “HT-XRPD Vacuum dried” value in series [2] (DCM, RT, 4 weeks) is reported as “B + C”; in series [2] (MeOH/DCM 50/50, RT, 4 weeks), “B + C”. In series [3], the “Polymorphic change (XRPD and DSC) after compression” value was “no change to the material”. Also, the Loss on drying is 0.003% in series [4] (80° C., 1 month, closed vial); 0.003% in series [4] (setting [9]); 0.003% in series [4] (100° C., 3 days, closed vial). Moreover, the “XRPD pattern after stress conditions” value in series [4] is reported as “unchanged”. The “TGMS mass loss after exposure to humidity” value in series [5] (80% RH) and in series [5] (92% RH) was 0.2% in each case. In series [5] (80% and 92% RH), the Hygroscopicity entry is reported as “non-hygroscopic”. Moreover, the “Physical stability (HT-XRPD) after exposure to humidity” value in series [5] (80 and 92% RH) is “physically stable”. In addition, the “Solid recovered after DVS measurements” value in series [6] (25° and 40° C.) is “still Modification A”. Further, in series [6] (25° and 40° C., RH profile 40-0-95-0-95-40%), the “DVS water vapor uptake” value was “did not show significant water vapor uptake”. Moreover, the results for the “DVS highest change in mass” value in series [6] (25° C.) and in series [6] (40° C.) were 0.4% and 0.3%, respectively.

For the compound `C=CC(=O)N(C)CCOc1c(N)ncnc1-c1cc(F)cc(NC(=O)c2ccc(C3CC3)cc2F)c1C` [Modification C, N-(3-(6-Amino-5-(2-(N-methylacrylamido)ethoxy)pyrimidin-4-yl)-5-fluoro-2-methylphenyl)-4-cyclopropyl-2-fluorobenzamide], the Loss on drying in series [4] (80° C., 1 month, closed vial) amounted to 0.007%; in series [4] (setting [9]), 0.006%; in series [4] (100° C., 3 days, closed vial) it was 0.003%. Also, the “XRPD pattern after stress conditions” value in series [4] is “converted to Modification B”. Also, in series [7], the “Time to complete conversion into Modification B” value is listed as 5 days. Also, the “HT-XRPD Evap. ML” value in series [8] (2-Methyl-2-butanol, 50° C., 1 week) was “A (l.y.)”; in series [8] (Acetone, 50° C., 1 week) it was “A (l.y.)”; in series [8] (Acetonitrile, 50° C., 1 week), “A (l.y.)”; in series [8] (Anisole, RT, 2 weeks) it was “A (l.y.)”; in series [8] (Chloroform, RT, 2 weeks), “C + SC”; in series [8] (Cyclopentanone, RT, 2 weeks), “A (l.y)”. The “HT-XRPD Evap. ML” value in series [8] (setting [10]) is “C (l.y.)”; in series [8] (Ethanol, 50° C., 1 week), “A (l.y.)”; in series [8] (Ethanol, RT, 2 weeks), “A (l.y.)”; in series [8] (Isopropyl acetate, RT, 2 weeks), “A (l.y.)”; in series [8] (Methanol, RT, 2 weeks), “A (l.y.)”; in series [8] (Nitromethane, 50° C., 1 week), “A (l.y.)”. Besides, the “HT-XRPD Evap. ML” value in series [8] (Nitromethane, RT, 2 weeks) was “A (l.y.)”; in series [8] (Water, RT, 2 weeks), “A (l.y.)”. For the same compound, the “HT-XRPD Ambient Dried” value in series [8] (Chloroform, RT, 2 weeks) was “C + SC”. In series [8] (Dichloromethane, RT, 2 weeks), the “HT-XRPD Vacuum dried” value is reported as “B + C”. In series [6] (Modifications B and C), the “DVS water vapor uptake” value is “did not show significant water vapor uptake”. For the same compound, the “XRPD of solid recovered after DVS measurement” value in series [6] (Modifications B and C, 25° C.) was “mixture of Modifications B and C”.

With `C=CC(=O)N(C)CCOc1c(N)ncnc1-c1cc(F)cc(NC(=O)c2ccc(C3CC3)cc2F)c1C` [Modification B, N-(3-(6-Amino-5-(2-(N-methylacrylamido)ethoxy)pyrimidin-4-yl)-5-fluoro-2-methylphenyl)-4-cyclopropyl-2-fluorobenzamide], the Loss on drying in series [4] (80° C., 1 month, closed vial) amounted to 0.009%; in series [4] (setting [9]), 0.004%; in series [4] (100° C., 3 days, closed vial), 0.004%. Further, in series [4], the “XRPD pattern after stress conditions” value is “unchanged”. Besides, the “HT-XRPD Evap. ML” value in series [8] (Acetonitrile, 50° C., 1 week) was “A (l.y.)”; in series [8] (Anisole, RT, 2 weeks) it was “A (l.y.)”; in series [8] (setting [10]) it was “B + C”; in series [8] (Dichloromethane, RT, 2 weeks), “B + SB (l.y.)”; in series [8] (Ethanol, 50° C., 1 week) it was “A (l.y.)”; in series [8] (Isopropyl acetate, 50° C., 1 week), “A (l.y.)”. Also, in series [8] (Nitromethane, RT, 2 weeks), the “HT-XRPD Evap. ML” value was “A (l.y.)”. For the same compound, the “HT-XRPD Ambient Dried” value is given as “A (l.y)” in series [8] (Chloroform, RT, 2 weeks) and “C (l.c.)” in series [8] (Dichloromethane, RT, 2 weeks). Also, the “HT-XRPD Vacuum dried” value in series [8] (Chloroform, RT, 2 weeks) is “(l.c.)”; in series [8] (setting [10]) it was “B + C”; in series [8] (Dichloromethane, RT, 2 weeks) it was “B + C”. For the same compound, the “DVS water vapor uptake” value in series [6] (Modifications B and C) is “did not show significant water vapor uptake”. For the same compound, the “XRPD of solid recovered after DVS measurement” value in series [6] (Modifications B and C, 25° C.) is “unchanged”.
